# Assay results as given in PMC7600679, “Benzoxazole-Based Metal Complexes to Reverse Multidrug Resistance in Bacteria” (Antibiotics, 2020).
# Key:
# [1] = tested on: Staphylococcus aureus ATCC 25923; assay: Minimum inhibitory concentration (broth microdilution, CLSI); type: cell-based; conditions: S. aureus ATCC 25923, 18 h, visual inspection
# Procedure: The compounds were further investigated against two Gram-positive strains, S. aureus ATCC 25923 (MSSA), used as the methicillin susceptible reference strain, and the methicillin- and ofloxacin-resistant S. aureus 272123 clinical isolate (MRSA), which was given by Prof. Dr. Leonard Amaral (Institute of Hygiene and Tropical Medicine, Lisbon, Portugal).
# (§1) The minimum inhibitory concentrations (MICs) of compounds were determined in 96-well plates based on the Clinical and Laboratory Standard Institute guidelines (CLSI guidelines). The compounds were diluted in 100 μL of MHB. Then, 10^−4 dilution of an overnight bacterial culture in 100 μL of medium were added to each well, with the exception of the medium control wells.
# E. coli AG100 A = assay: as above; type: cell-based, Escherichia coli; conditions: 18 h
# Procedure: Wild-type E. coli K-12 AG100 strain (argE3 thi-1 rpsL xyl mtl Δ(gal-uvrB) supE44) expressing the AcrAB TolC EP at its basal level and its AcrAB-TolC deleted mutant E. coli K-12 AG100 A strain. The strains were donated by Prof. Dr. Hiroshi Nikaido (Department of Molecular and Cell Biology and Chemistry, University of California, Berkeley, CA, USA).
# as §1
# [2] = tested on: Chromobacterium violaceum 026; assay: as above; type: cell-based; conditions: C. violaceum 026
# Outline: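 CLSI broth microdilution in MHB: serially diluted compounds received a 10^−4 dilution of overnight culture. E. cloacae 31298 is a clinical wound isolate that produces AHL. C. violaceum 026 is the QS sensor strain.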
# S. aureus MRSA 272123 = assay: Resistance modulation (MIC reduction) assay with CIP and TET; type: cell-based, Staphylococcus aureus; conditions: for Reduction of the MIC value of CIP: compound at a quarter of the MIC; for CIP MIC in combination with compounds: compound at ¼ MIC, value is the MIC of ciprofloxacin
# Procedure: The resistance modulation effects of compounds with ciprofloxacin (CIP) and tetracycline (TET) antibiotics were evaluated by the MIC reduction method on the Gram-negative E. coli AG100, AG100 A, and the Gram-positive S. aureus ATCC and MRSA strains.
# The chemosensitizing activity of benzoxazole-type ligands and their metal complexes was determined based on the MIC values of the antibiotics in the presence of sub-inhibitory concentrations of the compounds (¼ MIC) in both Gram-negative and Gram-positive strains. The MICs were determined in strains by the two-fold broth microdilution method in 96-well plates, using serial dilutions of TET and CIP. The first four rows contained two-fold dilutions of antibiotics, and combinations of the TET and CIP and tested compounds were transferred into the last four rows. The 10^−4 dilution of an overnight bacterial culture in 50 μL of MHB was then measured to each well, except for the medium control wells. The plates were kept at 37 °C for 18 h. MIC values of antibiotics and their combination with tested compounds were detected by visual inspection.
# S. aureus 272123 (MRSA) = assay: Real-time ethidium bromide accumulation (efflux pump inhibition); type: cell-based, Staphylococcus aureus; conditions: compounds at ¼ MIC (3 at 12.5 µM), VER at 25 µM, EB 1 μg/mL, minute 30
# Procedure: (§2) Since multidrug resistance EPs are very important factors contributing to multidrug resistance (MDR) in both Gram-positive and Gram-negative bacteria, the inhibition of these pumps could reverse the resistant phenotype and restore the activity of antibiotics. The effect of compounds on ethidium bromide (EB) accumulation was determined by the automated EB method. This assay was used to determine how much of the fluorescent dye and pump substrate EB was accumulated by the bacterial cells in the presence of the tested compounds. The real-time accumulation of EB was monitored for 30 min in both S. aureus and E. coli strains.
# (§3) The accumulation of the efflux pump substrate EB was monitored by the automated EB method using a LightCycler real-time thermocycler (LightCycler 1.5, Roche, Indianapolis, IN, USA). An aliquot of an overnight culture of the S. aureus strains in TSB medium was inoculated into fresh TSB medium, and it was incubated until it reached an optical density (OD) of 0.6 at 600 nm. In the case of E. coli strains, the medium applied in the assay was LB broth; the preparation of the inoculum was similar to the one of S. aureus. The cells were washed with phosphate buffered saline (PBS; pH 7.4) and centrifuged at 13,000 × g for 3 min, the pellets were re-suspended in PBS (pH 7.4), and the OD was calibrated to 0.6 at 600 nm. The compounds were measured at ¼ MIC concentration (in double-concentrated form) to the EB solution in PBS. The final concentration of EB was determined according to the MIC and the fluorescent signal produced by this amount of EB. In the case of all strains, the concentration of EB was 1 μg/mL. Then, 10 μL of the EB solution plus the compound were pipetted into standard glass capillary tubes of 20 µL maximum volume (Roche, Indianapolis, USA), and 10 μL of bacterial culture (OD of 0.6 at 600 nm) were transferred to the capillaries. The capillaries containing the samples were placed into the carousel, and the fluorescence was monitored at the FL-2 channel in every minute on a real-time basis.
# (§4) Based on the data obtained, the relative fluorescence index (RFI) of the last time point (minute 30) was determined as follows:RFI = (RFtreated − RFuntreated)/RFuntreated(1) where RFtreated is the relative fluorescence (RF) at the last time point of the EB retention curve in the presence of an inhibitor, and RFuntreated is the relative fluorescence at the last time point of the EB retention curve of the untreated control having the solvent control (DMSO).
# S. aureus ATCC 25923 [3] = assay: as above; type: cell-based, Staphylococcus aureus; conditions: compounds at ¼ MIC, EB 1 μg/mL, minute 30
# Procedure: as §2, §3, §4
# E. coli AG100 = assay: Real-time ethidium bromide accumulation (efflux pump inhibition, AcrAB-TolC); type: cell-based, Escherichia coli; conditions: compounds at ¼ MIC, EB 1 μg/mL, minute 30
# Procedure: as §2, §3, §4
# S. aureus ATCC 25923 [4] = assay: Anti-biofilm effect (crystal violet); type: cell-based, Staphylococcus aureus; conditions: compound at ¼ MIC, 48 h, 30 °C, vs untreated biofilm mass
# Procedure: The effect of ligands and their metal complexes on biofilm formation was evaluated on the reference S. aureus ATCC 25923 strain. The biofilm inhibition (%) was calculated based on the mean of absorbance units.
# The biofilm production of the S. aureus ATCC 25923 strain was studied in 96-well plates using TSB broth in the presence of compounds. […] The final volume was 200 μL in each well. The samples were incubated at 30 °C for 48 h with gentle agitation (100 rpm). Then, the medium was removed, and the plate was washed with tap water to discard unattached cells. 200 μL CV (0.1% [v/v]) was added to the wells and incubated for 15 min at room temperature. CV was removed from the wells and the plate was washed again with tap water. 200 μL 70% ethanol was transferred to each well and the biofilm formation was determined by measuring the OD at 600 nm using Multiscan EX ELISA reader (Thermo Labsystems, Cheshire, CT, USA). The anti-biofilm effect of compounds was determined as the percentage (%) of decrease in biofilm formation. The assay was repeated a minimum of three times. The results were calculated using a t-test and p-values of <0.001 were considered significant.
# [5] = E. coli AG100 A (AcrAB-TolC deleted), visual inspection
SMILES,MIC [1],MIC (E. coli AG100 A; [5]),MIC [2],Reduction of the MIC value of CIP (S. aureus MRSA 272123),CIP MIC in combination with compounds (S. aureus MRSA 272123),Relative fluorescence index (RFI) (S. aureus 272123 (MRSA)),Relative fluorescence index (RFI) (S. aureus ATCC 25923 [3]),Relative fluorescence index (RFI) (E. coli AG100),Biofilm inhibition (S. aureus ATCC 25923 [4]),"MIC ([1]; Staphylococcus aureus, ATCC25923)","MIC (E. coli AG100 A; Escherichia coli, AG100A)",MIC ([2]; Chromobacterium violaceum)
[O-]C(=Cc1nc2ccccc2o1)C(F)(F)Cl.[O-]C(=Cc1nc2ccccc2o1)C(F)(F)Cl.[Zn+2] [Compound 5],12.5 µM,12.5 µM,>100 µM,2 fold,6.25 µM,−0.13,0.03,0.37,,,,
[Fe+3].[O-]C(=Cc1nc2ccccc2o1)C(F)(F)F.[O-]C(=Cc1nc2ccccc2o1)C(F)(F)F.[O-]C(=Cc1nc2ccccc2o1)C(F)(F)F [Compound 12],50 µM,50 µM,>100 µM,2 fold,6.25 µM,−0.02,−0.02,0.04,75%,,,
O=C(Cc1nc2ccccc2o1)C(F)F [Compound 3],,,,2 fold,6.25 µM,0.13,−0.01,−0.07,16.4%,100 µM,25 µM,> 100 µM
